# Results reported in patent publication US8318422B2, “Antibacterial treatment of osteoarthritis” (Orthogenics AS, priority 2001, dated 2012).
# How the values were obtained:
# [1] = test system: patients with Osteoarthritis; assay: Clinical study: antibiotic treatment of patients with osteoarthritis, KOOS (Knee Injury and Osteoarthritis Outcome Score); assay type: in vivo, human; details: 100 mg daily for 4 weeks
# Excerpt: Thirty patients were diagnosed and treated for one month with the antibiotic known generically internationally as Doxycycline, this was purchased as Vibramycin from Pfizer. Samples from synovial fluid were taken before and after treatment. We identified 30 patients that had clinical and radiological signs of Osteoarthritis. These patients were informed and signed a paper according to the instructions from the ethical committee (Northern Norway Health Region 5). We used the KOOS (Knee Injury and Osteoarthritis Outcome Score) [Roos et al: Development of a self-administered outcome measure. Journal of Orthopaedic and Sports Physical Therapy 78(2): 88-96, 1998] and the Lysholm score [Ref. […] and Lysholm: Rating systems in the Evaluation of Knee Ligament Injuries. Clinical Orthopaedics an Related Research Number 198 September 1985: 43-49.] During the first visit we took a sample from the synovial fluid. Standard technique, upper lateral portal, using a 10 ml. syringe. […] The samples were immediately put into an icebox and brought to the lab. All the patients were given Vibramycin 100 mg daily for 4 weeks. From the patients where we found the bacteria, we took new synovial-fluid samples using the same technique. […] KOOS: These parameters were analysed. • Symptoms • Activity of daily living • Sport • Quality of daily living • Pain
# [2] = test system: patients with Osteoarthritis; assay: Clinical study: response to antibiotic treatment as determined by direct questions to the patients; assay type: in vivo, human; details: following 4 weeks of treatment
# Excerpt: Thirty patients were diagnosed and treated for one month with the antibiotic known generically internationally as Doxycycline, this was purchased as Vibramycin from Pfizer. Samples from synovial fluid were taken before and after treatment. We identified 30 patients that had clinical and radiological signs of Osteoarthritis. These patients were informed and signed a paper according to the instructions from the ethical committee (Northern Norway Health Region 5). During the first visit we took a sample from the synovial fluid. Standard technique, upper lateral portal, using a 10 ml. syringe. […] The samples were immediately put into an icebox and brought to the lab. All the patients were given Vibramycin 100 mg daily for 4 weeks. From the patients where we found the bacteria, we took new synovial-fluid samples using the same technique. Table 3 below show a summary of the response to antibiotic treatment with tetracycline for four weeks as determined by direct questions to the patients on how they felt.
# collagenase = details: Yu et al. 1991; cited from earlier work
# Pseudomonas [3] = details: cited from earlier work
# Pseudomonas [4] = details: cited from earlier work; remark: listed apart in the source
structure (smiles),measurement,setting,value
"C[C@H]1c2cccc(O)c2C(O)=C2C(=O)[C@]3(O)C(O)=C(C(N)=O)C(=O)[C@@H](N(C)C)[C@@H]3[C@@H](O)[C@@H]21 [Vibramycin, Doxycycline]",clinical scores for the patient (KOOS and Lysholm),[1],improved all the clinical scores
same,symptoms in the majority of patients tested,[2],improved symptoms
same,the patient's collagenase activity,collagenase,inhibit the patient's collagenase activity
CC(O)C(=O)O.O=C(O)c1cn(C2CC2)c2cc(N3CCNCC3)c(F)cc2c1=O [ciprofloxacinlactate],effectiveness against Pseudomonas,Pseudomonas [3],effective against Pseudomonas
NC(N)=NCCS [mercaptoethylguanidine],inflammatory response of Pseudomonas infection due to nitric oxide,Pseudomonas [4],inhibit the inflammatory response
